Source: the supplement of paper PMC10307832

How the values were obtained:
Assay in all cases: relative viability (nuclei count vs DMSO), 5 days (fraction); higher = more cells survive
[1] = compound: C1COCCN1C2=NC(=NC3=C2OC4=C3C=CC=N4)C5=CC(=CC=C5)NC(=O)C6=CN=C(C=C6)N + Cc1nc(Nc2ncc(C(=O)Nc3c(C)cccc3Cl)s2)cc(N2CCN(CCO)CC2)n1 [Dasatinib] (partner 0.075 µM)
How it was run: (§1)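 Relative viability was taken as the ratio of nuclei in treated wells to nuclei in vehicle wells. Lung cancer cell lines in 1536-well plates received compounds by pin tool one day after seeding, either one drug alone or a fixed anchor-drug dose plus five library-drug doses (not always all listed) in √10 steps. Nuclei were counted on 4× images after 5 days of treatment, and values are medians of duplicate plates.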

[2] = compound: CN1CCC(CNc2ccc3ncc(-c4cccc(OC(F)(F)F)c4)n3n2)CC1 [SGI-1776] + CC(=O)c1c(C)c2cnc(Nc3ccc(N4CCNCC4)cn3)nc2n(C2CCCC2)c1=O [Palbociclib] (partner 0.5 µM)
How it was run: as §1

[3] = compound: CN1CCC(CNc2ccc3ncc(-c4cccc(OC(F)(F)F)c4)n3n2)CC1 [SGI-1776] + Nc1nc2[nH]cc(CCc3ccc(C(=O)N[C@@H](CCC(=O)O)C(=O)O)cc3)c2c(=O)[nH]1 [Pemetrexed] (partner 0.2 µM)
How it was run: as §1

[4] = compound: CN1CCC(CNc2ccc3ncc(-c4cccc(OC(F)(F)F)c4)n3n2)CC1 [SGI-1776] + CC1(C)CCC(c2ccc(Cl)cc2)=C(CN2CCN(c3ccc(C(=O)NS(=O)(=O)c4ccc(N[C@H](CCN5CCOCC5)CSc5ccccc5)c(S(=O)(=O)C(F)(F)F)c4)cc3)CC2)C1 [Navitoclax] (partner 0.5 µM)
How it was run: as §1

Cell Line	relative viability ([1]; first compound 0.02 µM)	relative viability ([1]; first compound 0.06325 µM)	relative viability ([1]; first compound 0.2 µM)	relative viability ([1]; first compound 0.6325 µM)	relative viability ([1]; first compound 2 µM)	relative viability ([2]; first compound 0.08 µM)	relative viability ([2]; first compound 0.8 µM)	relative viability ([2]; first compound 2.53 µM)	relative viability ([2]; first compound 8 µM)	relative viability ([3]; first compound 0.08 µM)	relative viability ([3]; first compound 0.8 µM)	relative viability ([3]; first compound 2.53 µM)	relative viability ([3]; first compound 8 µM)	relative viability ([4]; first compound 0.08 µM)	relative viability ([4]; first compound 0.8 µM)	relative viability ([4]; first compound 2.53 µM)	relative viability ([4]; first compound 8 µM)
NCI-H460	0.521	0.361	0.417	0.414	0.185	0.243	0.133	0.121	0.151	0.0693	0.062	0.0616	0.0609	1.12	1.13	1.07	1.19
NCI-H520	0.227	0.188	0.219	0.177	0.131	0.267	0.219	0.191	0.16	0.784	0.692	0.553	0.348	1.14	1.25	1.13	1.08
NCI-H647	0.196	0.2	0.174	0.164	0.0709	0.506	0.367	0.319	0.258	0.172	0.151	0.166	0.145	1.1	0.993	1.18	0.715
NCI-H838	0.291	0.299	0.271	0.314	0.249	0.228	0.222	0.204	0.155	0.232	0.29	0.258	0.189	1.12	1.22	1.14	0.869
NCI-H1355	0.755	0.79	0.71	0.659	0.5	0.419	0.433	0.413	0.345	1.09	1.07	1.01	1.03	0.952	0.967	0.883	0.798
NCI-H1395	0.388	0.359	0.394	0.353	0.369	0.615	0.588	0.611	0.457	0.876	0.836	0.784	0.605	1.08	1.41	1.13	0.836
NCI-H1437	0.33	0.431	0.272	0.385	0.264	0.311	0.315	0.257	0.261	0.3	0.328	0.28	0.265	1.13	1.07	1.11	1.04
NCI-H1650	0.336	0.29	0.287	0.278	0.248	0.373	0.354	0.344	0.228	0.348	0.367	0.36	0.296	1.22	1.21	0.981	0.762
NCI-H1651	0.482	0.461	0.39	0.4	0.22	0.504	0.497	0.522	0.439	0.672	0.736	0.604	0.456	1.19	1.04	0.9	0.825
NCI-H1666	0.865	0.761	0.658	0.632	0.517	0.64	0.66	0.614	0.663	0.895	0.917	0.893	0.789	0.907	0.772	0.836	0.705
NCI-H1734	0.502	0.544	0.436	0.397	0.262	0.387	0.339	0.345	0.283	0.412	0.371	0.399	0.377	0.829	0.851	0.884	0.759
NCI-H1755	0.499	0.408	0.409	0.346	0.256	0.461	0.444	0.438	0.438	0.465	0.443	0.425	0.372	1.02	0.976	0.934	0.856
NCI-H1792	0.746	0.79	0.768	0.464	1.13	0.659	0.626	0.59	0.615	0.965	0.754	0.745	0.649	0.614	0.72	0.654	0.479
NCI-H1793	0.378	0.453	0.417	0.334	0.383	0.353	0.335	0.311	0.298	0.947	1.17	0.835	0.689	0.358	0.52	0.482	0.31
NCI-H1915	0.277	0.329	0.331	0.349	0.264	0.534	0.541	0.554	0.509	0.481	0.463	0.497	0.47	0.795	0.802	0.793	0.781
NCI-H1944	0.201	0.211	0.206	0.215	0.207	0.346	0.312	0.303	0.279	0.727	0.757	0.591	0.559	1.03	1.09	1.07	1.07
NCI-H1975	0.362	0.388	0.298	0.296	0.187	0.684	0.563	0.568	0.526	0.29	0.288	0.289	0.273	1.21	1.06	0.883	0.817

Cell Line	relative viability ([1]; first compound 0.02 µM)	relative viability ([1]; first compound 0.06325 µM)	relative viability ([1]; first compound 0.2 µM)	relative viability ([1]; first compound 0.6325 µM)	relative viability ([1]; first compound 2 µM)	relative viability ([2]; first compound 0.08 µM)	relative viability ([2]; first compound 0.8 µM)	relative viability ([2]; first compound 2.53 µM)	relative viability ([2]; first compound 8 µM)	relative viability ([3]; first compound 0.08 µM)	relative viability ([3]; first compound 0.8 µM)	relative viability ([3]; first compound 2.53 µM)	relative viability ([3]; first compound 8 µM)	relative viability ([4]; first compound 0.08 µM)	relative viability ([4]; first compound 0.8 µM)	relative viability ([4]; first compound 2.53 µM)	relative viability ([4]; first compound 8 µM)
NCI-H1993	0.553	0.552	0.594	0.572	0.492	0.466	0.662	0.526	0.504	0.61	0.569	0.559	0.548	0.95	0.945	0.832	0.56
NCI-H2009	0.245	0.278	0.215	0.219	0.215	0.251	0.151	0.166	0.174	0.912	1.05	1.15	0.954	1.15	1.18	1.19	1.08
NCI-H2023	0.632	0.648	0.47	0.484	0.251	0.38	0.396	0.354	0.266	0.282	0.222	0.244	0.174	1.04	1.04	0.998	0.979
NCI-H2085	0.223	0.252	0.25	0.204	0.258	0.491	0.482	0.468	0.444	0.936	1.06	0.971	0.788	1.18	1.07	1.2	0.945
NCI-H2087	0.942	0.913	0.799	0.845	0.441	0.299	0.231	0.293	0.204	0.672	0.607	0.68	0.651	0.963	1.04	1.04	0.861
NCI-H2126	0.691	0.587	0.528	0.507	0.551	0.389	0.334	0.361	0.331	0.736	0.693	0.693	0.624	0.809	0.877	0.846	0.743
NCI-H2170	0.561	0.507	0.551	0.538	0.618	0.376	0.349	0.408	0.364	0.225	0.287	0.254	0.295	0.561	0.678	0.581	0.56
NCI-H2228	0.647	0.487	0.439	0.33	0.246	0.787	1.1	0.715	0.537	0.369	0.392	0.332	0.33	0.843	0.817	0.658	0.51
NCI-H2347	0.291	0.257	0.349	0.321	0.323	0.414	0.455	0.44	0.426	0.471	0.419	0.469	0.338	0.886	0.787	0.808	0.673
NCI-H2405	0.209	0.229	0.223	0.215	0.213	0.553	0.516	0.484	0.44	1.13	1.1	0.949	0.857	0.823	0.804	0.779	0.452
NCI-H3122	0.796	0.786	0.787	0.868	0.657	0.206	0.2	0.173	0.165	0.202	0.201	0.198	0.193	1.01	1.03	1.03	1.04
PC-3 [JPC-3]	1.18	1.08	1.02	0.818	0.629	0.518	0.534	0.533	0.49	1.17	1.42	0.936	0.495	0.704	0.767	0.862	0.699
PC-14	0.229	0.229	0.218	0.138	0.175	0.573	0.448	0.436	0.0558	0.14	0.13	0.117	0.101	0.97	1.05	1.04	0.93
RERF-LC-KJ	0.944	1	0.79	0.713	0.559	1.01	1.06	1.07	0.748	0.46	0.477	0.461	0.412	0.936	1.04	0.937	0.789
SK-LU-1	0.153	0.188	0.168	0.176	0.16	0.425	0.306	0.415	0.371	1.02	0.932	1.1	0.781	1.27	1.35	1.01	0.468
SK-MES-1	0.342	0.406	0.259	0.239	0.244	0.379	0.315	0.327	0.241	1.11	1	0.999	0.647	1.35	1.23	1.27	1.15
SW 1573	0.401	0.565	0.458	0.378	0.247	0.441	0.351	0.363	0.245	0.896	0.799	0.77	0.671	1.1	0.862	1.15	0.719
